Assay results taken from PMC11335189, “Revealing molecular determinants governing mambalgin-3 pharmacology at acid-sensing ion channel 1 variants” (Cellular and Molecular Life Sciences: CMLS, 2024).
Where two headings read alike, the source gives them in different places. Positions of bridges follow the written chain, without caps; N, C: chain ends. No end group written: not given here.

Columns and labels:
rASIC1a = target: T1, rASIC1a (Rattus norvegicus, UniProt P55926); assay: TEVC in Xenopus laevis oocytes expressing rASIC1a; assay type: cell-based; conditions: peptides applied at pH 7.45, stimulated at pH 6
T1 construct: expressed in transfected cells; host or cells: Xenopus laevis oocytes (cRNA injection)
T1 sequence (P55926 1-526): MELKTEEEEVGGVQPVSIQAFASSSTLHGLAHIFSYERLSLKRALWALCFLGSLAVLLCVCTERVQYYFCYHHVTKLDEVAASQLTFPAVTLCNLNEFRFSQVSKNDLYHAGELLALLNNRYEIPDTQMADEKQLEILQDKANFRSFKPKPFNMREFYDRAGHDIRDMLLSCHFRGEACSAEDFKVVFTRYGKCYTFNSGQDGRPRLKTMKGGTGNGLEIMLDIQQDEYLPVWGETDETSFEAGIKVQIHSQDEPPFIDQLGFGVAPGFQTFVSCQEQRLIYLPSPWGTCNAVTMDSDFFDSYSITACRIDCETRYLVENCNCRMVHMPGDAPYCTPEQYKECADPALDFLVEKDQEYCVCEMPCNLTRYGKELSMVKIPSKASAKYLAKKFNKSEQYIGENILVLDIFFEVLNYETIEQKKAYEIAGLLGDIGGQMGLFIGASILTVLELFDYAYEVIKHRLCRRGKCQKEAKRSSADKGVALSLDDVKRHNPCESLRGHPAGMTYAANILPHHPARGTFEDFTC
Experimental: (§1) Two-electrode voltage-clamp (TEVC) experiments using Xenopus laevis oocytes were conducted as previously described. Briefly, oocytes were surgically removed from anaesthetised female frogs, then treated with collagenase (~ 1 mg/ml, Sigma type I) for 2 h under agitation at room temperature. cRNAs were synthesised using a mMessage mMachine T7 or SP6 transcription kit (Thermo Fisher Scientific Australia Pty Ltd, Scoresby, VIC, Australia) and injected into healthy stage V–VI oocytes at 0.2–20 ng per cell. Different amounts of RNA were used for different wild-type and mutant constructs, as well as to titrate expression levels to record over multiple days and maintaining consistent expression levels. Injected oocytes were incubated at 17 °C for 1–7 days in 50% Leibovitz’s L-15 medium (Gibco, Thermo Fisher Scientific Australia Pty Ltd, Scoresby, VIC, Australia), supplemented with 25 µg/mL gentamicin, 25 µg/mL streptomycin, and 2.5% fetal horse serum. Membrane currents were recorded 2–7 days after cRNA-injection under voltage-clamp at -60 mV (Axon Axoclamp 900 A, Molecular Devices, CA, USA) using two standard glass microelectrodes of 0.5–1 MΩ resistance when filled with 3 M KCl solution. Data were sampled at 2 kHz and filtered at 0.1 kHz using Clampex 10 software (Molecular Devices, CA, USA). A microperfusion system was used to allow fast extracellular solution exchange (bath volume = ~ 30 µL). All experiments were performed at room temperature (18–23 °C) in ND96 (96 mM NaCl, 2 mM KCl, 1.8 mM CaCl2, 2 mM MgCl2, 5 mM HEPES, pH 7.45). In solutions below pH 6.8, HEPES was replaced by MES. All solutions containing peptides contained 0.05% fatty acid free bovine serum albumin to decrease adsorptive losses of peptide to plasticware. For all channels tested, control current magnitudes between 500 and 9000 nA when tested using a conditioning pH of 7.45 and stimulating pH of 6 (except for the chimeras that were stimulated with pH 5) were used for data collection. Before recording any experiments, oocytes were stimulated multiple times with low pH to minimise and stabilise tachyphylaxis/desensitisation, which were then accounted for during analysis. Complete recovery of currents from Ma-3 induced modulation within 3 min of washout at all channels tested allowed for correction for tachyphylaxis/desensitisation during analyses.
(§2) Specific to this work, the standard protocol was for oocytes to be conditioned at pH 7.45 and channels stimulated every 60 s using a 5 s pH 5 or 6 application, unless stated otherwise. For all concentration-response data, peptides were applied for ~ 50 s between each low pH stimulus application. Activation curves were determined by conditioning oocytes at pH 8 (Fig. 2e − g; and Fig. 5a and b) or 7.45 (Fig. 6; and Supplementary Fig. 2d and c) for 55 s and applying low pH stimuli from 7.25 to 5.0 for 5 s. Steady-state desensitisation (SSD) was determined by applying conditioning solutions of pH values from 8 to 6 for 115 s prior to stimulation by a pH drop to 5 for 5 s. Ma-3 was only applied in the conditioning solution for activation and steady-state desensitisation curves in the presence of peptide. Control pH-dependence curves were determined in the absence of any Ma-3. When assessing the effect of Ma-3 on the rASIC1a: ASIC1b chimeras (C92 and C166; and for the comparative wild-type data), the conditioning pH was 7.45 and stimulating pH 5 (Fig. 3b). Specific details of the conditioning and stimulating pH are noted in each figure legend.
(§3) Data were analysed using pCLAMP-Clampfit software (Version 11, Molecular Devices, CA, USA) and GraphPad Prism 9.5 and 10.2.2 (GraphPad Software, San Diego, CA, USA). To obtain the Hill coefficient (nH) and half-maximal response (EC50, IC50, or pH50) the Hill equation was fitted to normalised concentration-response curves by using a non-linear fit to the data of a four-parameter logistic equation (“sigmoidal dose-response” in GraphPad Prism 9.5). […]

hASIC1b = target: T2, hASIC1b (Homo sapiens, UniProt P78348); assay: TEVC in Xenopus laevis oocytes expressing hASIC1b; assay type: cell-based; conditions: for remaining activity at 1 µM: 1 µM peptide, conditioning pH 7.45, mean, n ≥ 5, read-out: I/Icontrol
T2 construct: expressed in transfected cells; host or cells: Xenopus laevis oocytes (cRNA injection)
T2 sequence (P78348 1-562 isoform P78348-3): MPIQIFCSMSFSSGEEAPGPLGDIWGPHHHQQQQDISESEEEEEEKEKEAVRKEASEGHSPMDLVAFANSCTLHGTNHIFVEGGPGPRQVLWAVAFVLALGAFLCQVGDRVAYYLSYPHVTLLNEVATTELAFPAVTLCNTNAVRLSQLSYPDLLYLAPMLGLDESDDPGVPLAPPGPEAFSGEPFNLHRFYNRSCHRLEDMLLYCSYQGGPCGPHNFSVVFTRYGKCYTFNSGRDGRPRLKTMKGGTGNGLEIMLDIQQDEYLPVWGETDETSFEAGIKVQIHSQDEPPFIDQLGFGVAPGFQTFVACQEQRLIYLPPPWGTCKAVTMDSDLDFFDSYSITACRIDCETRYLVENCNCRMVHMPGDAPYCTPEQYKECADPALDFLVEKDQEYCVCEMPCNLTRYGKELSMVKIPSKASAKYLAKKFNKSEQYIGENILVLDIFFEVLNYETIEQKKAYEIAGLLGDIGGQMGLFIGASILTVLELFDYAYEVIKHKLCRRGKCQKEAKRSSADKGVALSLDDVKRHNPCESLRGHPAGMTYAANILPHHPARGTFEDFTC
Experimental: as §1, §2, §3

[1] = target: T3, rat acid-sensing ion channel 1a (rat) (UniProt P55926)
T3 sequence: T1 sequence (P55926 1-526)

Row | Substance | increase in IC50 (loss of potency) relative to wild-type Ma-3 (rASIC1a) | remaining activity at 1 µM (hASIC1b; pH 5 evoked currents) [%] | remaining activity at 1 µM (hASIC1b; pH 6 evoked currents) [%] | Hill slope (95% CI) (hASIC1b; conditioning pH 7.45, pH 6 evoked currents, potentiation, 95% CI) | fold increase of the IC50 of current inhibition against wild-type Ma-3 (conditioning pH 7.45, stimulus pH 6) [1] [fold]
1 | H-SLKCYQAGKVVTCHRDMKFCYHNIGMPFRNLKLILQGCSSSCSETENNKCCSTDRCNK (disulfide 4-20, 13-38, 42-50, 51-56 (inferred)) [H6A] | greater than 10 fold | 98 | 103 | – | –
2 | H-SLKCYQHGKVVTCARDMKFCYHNIGMPFRNLKLILQGCSSSCSETENNKCCSTDRCNK (disulfide 4-20, 13-38, 42-50, 51-56 (inferred)) [H13A] | – | 74 | 142 | – | –
3 | H-SLKCYQHGKVVTCHADMKFCYHNIGMPFRNLKLILQGCSSSCSETENNKCCSTDRCNK (disulfide 4-20, 13-38, 42-50, 51-56 (inferred)) [R14A] | – | 77 | 157 | – | –
4 | H-SLKCYQHGKVVTCHRDMKFCYHNAGMPFRNLKLILQGCSSSCSETENNKCCSTDRCNK (disulfide 4-20, 13-38, 42-50, 51-56 (inferred)) [I23A] | – | 67 | 159 | – | –
5 | H-SLKCYQHGKVVTCHRDMKFCYHNIGMPARNLKLILQGCSSSCSETENNKCCSTDRCNK (disulfide 4-20, 13-38, 42-50, 51-56 (inferred)) [F27A] | greater than 10 fold | 96 | 111 | – | –
6 | H-SLKCYQHGKVVTCHRDMKFCYHNIGMPFANLKLILQGCSSSCSETENNKCCSTDRCNK (disulfide 4-20, 13-38, 42-50, 51-56 (inferred)) [R28A] | greater than 10 fold | 97 | 118 | – | –
7 | H-SLKCYQHGKVVTCHRDMKFCYHNIGMPFRALKLILQGCSSSCSETENNKCCSTDRCNK (disulfide 4-20, 13-38, 42-50, 51-56 (inferred)) [N29A] | – | 76 | 171 | – | –
8 | H-SLKCYQHGKVVTCHRDMKFCYHNIGMPFRNAKLILQGCSSSCSETENNKCCSTDRCNK (disulfide 4-20, 13-38, 42-50, 51-56 (inferred)) [L30A] | – | 116 | 172 | – | –
9 | H-SLKCYQHGKVVTCHRDMKFCYHNIGMPFRNLALILQGCSSSCSETENNKCCSTDRCNK (disulfide 4-20, 13-38, 42-50, 51-56 (inferred)) [K31A] | – | 94 | 140 | – | –
10 | H-SLKCYQHGKVVTCHRDMKFCYHNIGMPFRNLKAILQGCSSSCSETENNKCCSTDRCNK (disulfide 4-20, 13-38, 42-50, 51-56 (inferred)) [L32A] | greater than 10 fold | 96 | 100 | – | –
11 | H-SLKCYQHGKVVTCHRDMKFCYHNIGMPFRNLKLALQGCSSSCSETENNKCCSTDRCNK (disulfide 4-20, 13-38, 42-50, 51-56 (inferred)) [I33A] | greater than 10 fold | 100 | 133 | – | –
12 | H-SLKCYQHGKVVTCHRDMKFCYHNIGMPFRNLKLIAQGCSSSCSETENNKCCSTDRCNK (disulfide 4-20, 13-38, 42-50, 51-56 (inferred)) [L34A] | greater than 10 fold | 98 | 116 | – | –
13 | H-SLKCYQHGKVVTCHRDMKFCYHNIGMPFRNLKLILAGCSSSCSETENNKCCSTDRCNK (disulfide 4-20, 13-38, 42-50, 51-56 (inferred)) [Q35A] | – | 71 | 168 | – | –
14 | H-SLKCYQHGKVVTCHRDMKFCYHNIGMPFRNLKLILQGCSAACSETENNKCCSTDRCNK (disulfide 4-20, 13-38, 42-50, 51-56 (inferred)) [S39A/S40A] | – | 71 | 165 | – | –
15 | H-SLKCYQHGKVVTCHRDMKFCYHNIGMPFRNLKLILQGCSSSCSETANNKCCSTDRCNK (disulfide 4-20, 13-38, 42-50, 51-56 (inferred)) [E45A] | – | 68 | 163 | – | –
16 | H-SLKCYQHGKVVTCHRDMKFCYHNIGMPFRNLKLILQGCSSSCSETENNACCSTDRCNK (disulfide 4-20, 13-38, 42-50, 51-56 (inferred)) [K48A] | – | 70 | 154 | – | –
17 | H-SLKCYQHGKVVTCHRDMKFCYHNIGMPFRNLKLILQGCSSSCSETENNKCCSTDACNK (disulfide 4-20, 13-38, 42-50, 51-56 (inferred)) [R54A] | – | 79 | 145 | – | –
18 | H-SLKCYQHGKVVTCHRDMKFCYHNIGMPFRNLKLILQGCSSSCSETENNKCCSTDRCNA (disulfide 4-20, 13-38, 42-50, 51-56 (inferred)) [K57A] | – | 73 | 147 | – | –
19 | LKCYQHGKVVTCHRDMKFCYHNTGMPFRNLKLILQGCSSSCSETENNKCCSTDRCNK (disulfide 3-19, 12-37, 41-49, 50-55) [Ma-1, reference compound] | – | – | – | 0.73–2.56 | –
20 | Ma-3 H6A (peptide) | – | – | – | – | > 10
